Measured values taken from PMC9026428, “New Peptide Based Fluconazole Conjugates with Expanded Molecular Targets” (Pharmaceutics, 2022).
≈ marks a conversion by molar mass, not a printed value. Non-standard residues stand in square brackets, D forms with d. Residues, ends and D or L forms follow the SMILES beside them. *: point of attachment. X1 = O=C(CCCC(=O)*)OC(Cn1cncn1)(Cn1cncn1)c1ccc(F)cc1F; Nle = CCCC[C@H](N)C(=O)O

What was measured:
Candida albicans B4 = test: microbe, parasite or virus in culture; conditions: 37 °C; for MIC50 / MIC90: C. albicans B4 (fluconazole-resistant, MDR1 overexpression), RPMI 1640/MOPS pH 7.0, 24 h, triplicate; for MIC50: at least 50% growth inhibition vs growth control; for MIC90: lowest concentration with no visible growth
How it was run: (§1)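 CLSI M27-A3-based microdilution, RPMI/MOPS pH 7.0, 24 h at 37 °C, ~1% DMSO.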

[1] = tested on: Candida glabrata DSM 6128; test: microbe, parasite or virus in culture; conditions: C. glabrata DSM 6128, RPMI 1640/MOPS pH 7.0, 24 h, 37 °C, triplicate; for MIC50: at least 50% growth inhibition vs growth control; for MIC90: lowest concentration with no visible growth
How it was run: as §1

Candida albicans 48 = test: microbe, parasite or virus in culture; conditions: 37 °C; for MIC50 / MIC90: C. albicans 48 (fluconazole-resistant clinical isolate), RPMI 1640/MOPS pH 7.0, 24 h, triplicate; for MIC50: at least 50% growth inhibition vs growth control; for MIC90: lowest concentration with no visible growth
How it was run: as §1

[2] = tested on: Candida albicans ATCC 10231; test: microbe, parasite or virus in culture; conditions: C. albicans ATCC 10231, 37 °C; for MIC50 / MIC90: RPMI 1640/MOPS pH 7.0, 24 h, triplicate; for MIC50: at least 50% growth inhibition vs growth control; for MIC90: lowest concentration with no visible growth
How it was run: as §1

Candida albicans 190 = test: microbe, parasite or virus in culture; conditions: 37 °C; for MIC50 / MIC90: C. albicans 190 (fluconazole-resistant clinical isolate), RPMI 1640/MOPS pH 7.0, 24 h, triplicate; for MIC50: at least 50% growth inhibition vs growth control; for MIC90: lowest concentration with no visible growth
How it was run: as §1

Candida albicans B3 = test: microbe, parasite or virus in culture; conditions: 37 °C; for MIC50 / MIC90: C. albicans B3 (fluconazole-sensitive isolate), RPMI 1640/MOPS pH 7.0, 24 h, triplicate; for MIC50: at least 50% growth inhibition vs growth control; for MIC90: lowest concentration with no visible growth
How it was run: as §1

Candida albicans SC 5314 = test: microbe, parasite or virus in culture; conditions: C. albicans SC 5314, 37 °C; for MIC50 / MIC90: RPMI 1640/MOPS pH 7.0, 24 h, triplicate; for MIC50: at least 50% growth inhibition vs growth control; for MIC90: lowest concentration with no visible growth; for MFC: aliquots plated on YPD agar, 24 h, lowest concentration with no colony growth
How it was run: as §1

Candida krusei DSM 11226 = test: microbe, parasite or virus in culture; conditions: C. krusei DSM 11226, 37 °C; for MIC50 / MIC90: RPMI 1640/MOPS pH 7.0, 24 h, triplicate; for MIC50: at least 50% growth inhibition vs growth control; for MIC90: lowest concentration with no visible growth; for MFC: aliquots plated on YPD agar, 24 h, lowest concentration with no colony growth
How it was run: as §1

Candida albicans 138 = test: microbe, parasite or virus in culture; conditions: 37 °C; for MIC50 / MIC90: C. albicans 138 (fluconazole-resistant clinical isolate), RPMI 1640/MOPS pH 7.0, 24 h, triplicate; for MIC50: at least 50% growth inhibition vs growth control; for MIC90: lowest concentration with no visible growth
How it was run: as §1

C. albicans SC5314 [3] = conditions: C. albicans SC5314, 1 × MFC, time-kill over 24 h, RPMI 1640, 37 °C
Description: Antifungal time-kill studies were carried out by a method previously described and evaluated by Klepser et al. [40]. A starting inoculum was prepared by inoculating a tube of sterile water with growth from 24 h YPD agar plates (C. albicans SC5314), and OD660 was adjusted to about 0.1 (around 10^6 cells per 1 mL). […] A negative control (growth medium without drug or organism) was also included at each time of testing. Tubes were incubated at 37 °C on an orbital shaker and vortexed before removing a sample for the determination of colony counts. After the appropriate time of incubation (0.5, 2, 4, 6, and 24 h), 1 mL of each suspension was centrifuged (2 min, 9170× g), and the pellet was re-suspended in 1 mL of PBS pH 7.4. Ten-fold serial dilutions with PBS were prepared, and 100 μL of each was inoculated on YPD agar plates in duplicate. Plates were incubated for 24 h at 37 °C. Colony forming units in the range of 30–300 were counted (on the plates containing from 30 to 300 colonies) and the number of yeast cells in 1 mL (CFU/mL) was calculated [21].

C. albicans SC5314 [4] = test: Membrane permeabilization assay by propidium iodide uptake (flow cytometry, fluorescence microscopy); format: cell-based, Candida albicans
Description: Suspensions of C. albicans SC5314 were prepared by taking one loop of pure culture growth from 24 h YPD agar plates into RPMI 1640 medium and adjusting optical density to 0.1 at 660 nm wavelength. […] The cell suspensions were then treated for 0.5, 2, 4, 6, and 24 h at 37 °C with continuous agitation (180 rpm). The cells were then centrifuged and resuspended in 200 µL of PBS buffer (pH 7.4). Subsequently, cells were treated with propidium iodide (1 mg/mL, final concentration) and incubated for 30 min at room temperature in the dark. Cellular fluorescence was visualized using lens 20×, using Olympus Fluorescence Microscope BX60 (Olympus, Tokyo, Japan). The images were also post-processed utilizing cell Sens program. The fluorescence intensity emitted by DNA-bound propidium iodide was measured using a flow cytometer (Merck Millipore guava easyCyte 8, Darmstadt, Germany). Data were obtained from at least two independent experiments.

SMILES	MIC50 (Candida albicans B4) [µM]	MIC90 (Candida albicans B4) [µM]	MIC50 [1] [µM]	MIC90 [1] [µM]	MIC50 (Candida albicans 48) [µM]	MIC90 (Candida albicans 48) [µM]	MIC50 [2] [µM]	MIC90 [2] [µM]	MIC50 (Candida albicans 190) [µM]	MIC90 (Candida albicans 190) [µM]	MIC50 (Candida albicans B3) [µM]	MIC90 (Candida albicans B3) [µM]	MIC50 (Candida albicans SC 5314) [µM]	MIC90 (Candida albicans SC 5314) [µM]	MIC50 (Candida krusei DSM 11226) [µM]	MIC90 (Candida krusei DSM 11226) [µM]	MIC50 (Candida albicans 138) [µM]	MIC90 (Candida albicans 138) [µM]	MFC (Candida albicans SC 5314) [µM]	MFC (Candida krusei DSM 11226) [µM]	other results
CSCC[C@H](NC(=O)[C@H](C)NC(=O)[C@H](CCCNC(=N)N)NC(=O)[C@H](CCCCN)NC(=O)[C@H](Cc1c[nH]c2ccccc12)NC(=O)[C@H](CCC(N)=O)NC(=O)[C@H](Cc1ccccc1)NC(=O)[C@H](CS)NC(=O)CCCC(=O)OC(Cn1cncn1)(Cn1cncn1)c1ccc(F)cc1F)C(=O)N[C@@H](CCCNC(=N)N)C(=O)N[C@@H](CCCCN)C(=O)N[C@H](C(=O)N[C@@H](CCCNC(=N)N)C(N)=O)C(C)C [FLCpOH-HLopt2-NH2] (X1-CFQWKRAMRKVR-NH2)	>250	>250	>250	>250	250 (≈ 503 µg/mL)	>250	125 (≈ 251 µg/mL)	250 (≈ 503 µg/mL)	250 (≈ 503 µg/mL)	>250	>250	>250	62 (≈ 125 µg/mL)	125 (≈ 251 µg/mL)	>250	>250	>250	>250			
CSCC[C@H](NC(=O)[C@H](CCCNC(=N)N)NC(=O)[C@H](Cc1c[nH]c2ccccc12)NC(=O)[C@H](CCC(N)=O)NC(=O)[C@H](Cc1c[nH]c2ccccc12)NC(=O)[C@H](CCCNC(=N)N)NC(=O)[C@H](CCCNC(=N)N)NC(=O)[C@H](CS)NC(=O)[C@H](CCCCN)NC(=O)[C@H](Cc1ccccc1)NC(=O)CCCC(=O)OC(Cn1cncn1)(Cn1cncn1)c1ccc(F)cc1F)C(N)=O [FLCpOH-LFacinB(2-11)-NH2] (X1-FKCRRWQWRM-NH2)	190 (≈ 361 µg/mL)	250 (≈ 475 µg/mL)	>250	>250	250 (≈ 475 µg/mL)	>250	125 (≈ 237 µg/mL)	250 (≈ 475 µg/mL)	190 (≈ 361 µg/mL)	250 (≈ 475 µg/mL)	125 (≈ 237 µg/mL)	250 (≈ 475 µg/mL)	62 (≈ 118 µg/mL)	125 (≈ 237 µg/mL)	31 (≈ 58.8 µg/mL)	62 (≈ 118 µg/mL)	190 (≈ 361 µg/mL)	250 (≈ 475 µg/mL)	250 (≈ 475 µg/mL)	125 (≈ 237 µg/mL)	
CCCC[C@H](NC(=O)CCCC(=O)OC(Cn1cncn1)(Cn1cncn1)c1ccc(F)cc1F)C(=O)N[C@@H](Cc1ccccc1)C(=O)N[C@@H](CCCCN)C(=O)N[C@@H](CS)C(=O)N[C@@H](CCCNC(=N)N)C(=O)N[C@@H](CCCNC(=N)N)C(=O)N[C@@H](Cc1c[nH]c2ccccc12)C(=O)N[C@@H](CCC(N)=O)C(=O)N[C@@H](Cc1c[nH]c2ccccc12)C(=O)N[C@@H](CCCNC(=N)N)C(=O)N[C@@H](CCCC)C(=O)N[C@@H](CCCCN)C(=O)N[C@@H](CCCCN)C(=O)N[C@@H](CC(C)C)C(=O)NCC(N)=O [FLCpOH-LFacinB[Nle^1,11]-NH2] (X1-[Nle]FKCRRWQWR[Nle]KKLG-NH2)	250 (≈ 605 µg/mL)	>250	250 (≈ 605 µg/mL)	>250	250 (≈ 605 µg/mL)	>250	45 (≈ 109 µg/mL)	62 (≈ 150 µg/mL)	90 (≈ 218 µg/mL)	125 (≈ 302 µg/mL)	45 (≈ 109 µg/mL)	62 (≈ 150 µg/mL)	23 (≈ 55.7 µg/mL)	31 (≈ 75 µg/mL)	31 (≈ 75 µg/mL)	62 (≈ 150 µg/mL)	23 (≈ 55.7 µg/mL)	31 (≈ 75 µg/mL)	250 (≈ 605 µg/mL)		
CC[C@H](C)[C@H](NC(=O)[C@H](CCCCN)NC(=O)[C@H](CCCCN)NC(=O)[C@H](C)NC(=O)[C@H](CC(C)C)NC(=O)[C@H](C)NC(=O)[C@H](C)NC(=O)[C@H](CC(C)C)NC(=O)[C@H](C)NC(=O)[C@H](CCCCN)NC(=O)[C@H](CC(C)C)NC(=O)[C@H](CC(N)=O)NC(=O)[C@@H](NC(=O)[C@H](CCCCN)NC(=O)CNC(=O)[C@H](CC(C)C)NC(=O)[C@H](CC(C)C)NC(=O)[C@H](Cc1ccc(O)cc1)NC(=O)CNC(=O)[C@H](C)NC(=O)CCCC(=O)OC(Cn1cncn1)(Cn1cncn1)c1ccc(F)cc1F)[C@@H](C)CC)C(=O)N[C@@H](CC(C)C)C(N)=O [FLCpOH-TP10-NH2]	62 (≈ 160 µg/mL)	125 (≈ 323 µg/mL)	62 (≈ 160 µg/mL)	125 (≈ 323 µg/mL)	45 (≈ 116 µg/mL)	62 (≈ 160 µg/mL)	15 (≈ 38.8 µg/mL)	31 (≈ 80.1 µg/mL)	45 (≈ 116 µg/mL)	62 (≈ 160 µg/mL)	31 (≈ 80.1 µg/mL)	62 (≈ 160 µg/mL)	8 (≈ 20.7 µg/mL)	15 (≈ 38.8 µg/mL)	62 (≈ 160 µg/mL)	125 (≈ 323 µg/mL)	45 (≈ 116 µg/mL)	62 (≈ 160 µg/mL)	31 (≈ 80.1 µg/mL)	250 (≈ 646 µg/mL)	reduction in yeast cell count (C. albicans SC5314 [3]): 1 log10; MFC (Candida albicans B4; C. albicans B4, aliquots plated on YPD agar, 24 h, lowest concentration with no colony growth): 125 µM (≈ 323 µg/mL); MFC (Candida albicans 48; C. albicans 48, aliquots plated on YPD agar, 24 h, lowest concentration with no colony growth): 250 µM (≈ 646 µg/mL); MFC ([2]; aliquots plated on YPD agar, 24 h, lowest concentration with no colony growth): 62 µM (≈ 160 µg/mL); MFC (Candida albicans 190; C. albicans 190, aliquots plated on YPD agar, 24 h, lowest concentration with no colony growth): 250 µM (≈ 646 µg/mL); MFC (Candida albicans B3; C. albicans B3, aliquots plated on YPD agar, 24 h, lowest concentration with no colony growth): 62 µM (≈ 160 µg/mL); MFC (Candida albicans 138; C. albicans 138, aliquots plated on YPD agar, 24 h, lowest concentration with no colony growth): 250 µM (≈ 646 µg/mL); cell membrane disruption (PI uptake), in words (C. albicans SC5314 [4]): significant cell membrane damage
O=C(O)CCCC(=O)OC(Cn1cncn1)(Cn1cncn1)c1ccc(F)cc1F [FLCpOH]	>250	>250	>250	>250	>250	>250	>250	>250	>250	>250	>250	>250	>250	>250	>250	>250	>250	>250			
